A short description of this data set: Inhibitor release study by HPLC. The class given is physicochemical. The procedure: Inhibitor loading efficiency and release studies: All supernatants after initial loading of inhibitors were stored at −20° C. Supernatants were analyzed by reverse phase high performance liquid chromatography (HPLC). Inhibitor release studies were done sampling particle suspension inhibitor release up to 6 days. Briefly, drug release solution was prepared using 1 mL of 1×PBS, and 1 mL of 1% bovine serum albumin. The lyophilized pSi were suspended at a concentration of 3 mg/mL of drug release solution and incubated at 37° C. with constant stirring. At 1, 3, 5, 12 and every 24 hours thereafter, suspensions were centrifuged and 1 ml drug release solution was taken and replaced with fresh drug release solution. Agilent Zorbax Eclipse Plus C18 (100×4.6 mm, 3.5 um pore particle size) column was used for analysis. Samples flowed through the column at 1.0 ml/min and with a mobile phase consisting of acetonitrile in 0.1% trifluoroacedic acid: H2O in 0.1% trifluoroacedic acid (V/V). Samples were analyzed at 281 nm.

`Cc1ccc2nc(NC(=O)CSc3nc4c(c(=O)n3-c3ccccc3)SCC4)sc2c1` [IWP2] had a cumulative release (from pSi coated with 5 wt % PLGA 50:50, after 144 hours) of 56.4±7.2%; a cumulative release (from pSi coated with 5 wt % PLGA 50:50, end of 72 hours) of 40.2±9.1%; a cumulative release (from pSi coated with 5 wt % PLGA 50:50, within the first 48 hours) of 27.8±7.2%.

Turning to `Cc1c[nH]c(-c2cnc(NCCNc3ccc(C#N)cn3)nc2-c2ccc(Cl)cc2Cl)n1` [CHIR99021], the cumulative release is, setting by setting: (from pSi, at 144 hours) around 100%; (from pSi, within the first 24 hours, 37° C., PBS/BSA) 81.1±5.3%.
